Laboratory results: patent publication US20240360087A1, “THERMODYNAMICALLY STABLE FORM OF SCO-101” (SCANDION ONCOLOGY A/S, priority 2021, published 2024)
“Also recorded” adds a separate entry of the source.

Legend:
Format in all cases: physicochemical
[1] = Dynamic vapour sorption (DVS), hygroscopicity; details: for mass gain at 90% relative humidity (DVS): 25° C.; for hygroscopicity (DVS), in words: RH up to 90%
Method: Approximately 10-20 mg of sample was placed into a mesh vapour sorption balance pan and loaded into a DVS Intrinsic or Advantage dynamic vapour sorption balance by Surface Measurement Systems. The sample was subjected to a ramping profile from 40-90% relative humidity (RH) at 10% increments, maintaining the sample at each step until a stable weight had been achieved (dm/dt 0.004%, minimum step length 30 minutes, maximum step length 120 minutes) at 25° C. After completion of the sorption cycle, the sample was dried using the same procedure to 0% RH and then a second sorption cycle back to 40% RH. Two cycles were performed. The weight change during the sorption/desorption cycles were plotted, allowing for the hygroscopic nature of the sample to be determined. XRPD analysis was then carried out on any solid retained.

[2] = Competitive slurry experiments (thermodynamic stability of solid forms); details: for thermodynamic stability of the solid form, in words: conclusion from competitive slurry experiments and thermal data; for Form/Pattern after slurrying for 3 days: 1:1 mixture with Form I, 40° C., XRPD
Method: The slurries were stirred at 40° C. for 3 days. After 3 days, the solids were filtered centrifugally and analysed by XRPD.

[3] = Storage at 40° C./75% RH in an open vial, XRPD; details: 3 days
Method: 200 mg SCO-101, Form III (Pattern 24) was placed at 40° C./75% RH in an open vial covered with tissue for 3 days.

[4] = Variable temperature XRPD (VT-XRPD) of solid form conversion; details: mixture of Form III and Form IV at 150° C.
[5] = saturated acetone:heptane (50:50% v/v)
[6] = saturated acetone:water (50:50% v/v)

Row | mass gain at 90% relative humidity (DVS) ([1]; 90% RH) | hygroscopicity (DVS), in words ([1]; listed as crystal form I) | water absorbed at 90% RH (DVS) ([1]; 90% RH) | weight gain when increasing RH from 70% to 80% (DVS) ([1]; RH 70% to 80%, corresponds to monohydrate) [%] | hygroscopicity (DVS), in words ([1]; listed as crystal form II) | Form/Pattern after slurrying for 3 days [2, 5] | Form/Pattern after slurrying for 3 days [2, 6] | solid form after storage (XRPD) [3] | temperature of complete transformation into Form IV (VT-XRPD) [4] [°C] | SMILES | hygroscopicity (DVS), in words [1] | thermodynamic stability of the solid form, in words [2]
1 | no increase in mass | non-hygroscopic | – | – | – | – | – | – | – | O=C(Nc1cc(C(F)(F)F)cc(C(F)(F)F)c1)Nc1ccc(Br)cc1-c1nnn[nH]1 [Form I, N-[4-Bromo-2-(1H-1,2,3,4-tetrazol-5-yl)phenyl]-N′-[3,5-bis(trifluoromethyl)phenyl]urea] | non-hygroscopic | thermodynamically most stable polymorph; also recorded: thermodynamically stable polymorph
2 | approx 6% | – | approx. 6 % (w/w) | 3 | hygroscopic | Form I | Form I | – | – | O=C(Nc1cc(C(F)(F)F)cc(C(F)(F)F)c1)Nc1ccc(Br)cc1-c1nnn[nH]1 [Form II, N-[4-Bromo-2-(1H-1,2,3,4-tetrazol-5-yl)phenyl]-N′-[3,5-bis(trifluoromethyl)phenyl]urea] | takes up water to form a hydrate; also recorded: hygroscopic | metastable form
3 | – | – | – | – | – | – | – | Form IV, Pattern 29 | 155 | O=C(Nc1cc(C(F)(F)F)cc(C(F)(F)F)c1)Nc1ccc(Br)cc1-c1nnn[nH]1 [Form III, N-[4-Bromo-2-(1H-1,2,3,4-tetrazol-5-yl)phenyl]-N′-[3,5-bis(trifluoromethyl)phenyl]urea] | – | –
4 | – | – | – | – | – | Form I | Form I | – | – | O=C(Nc1cc(C(F)(F)F)cc(C(F)(F)F)c1)Nc1ccc(Br)cc1-c1nnn[nH]1 [Pattern 5, N-[4-Bromo-2-(1H-1,2,3,4-tetrazol-5-yl)phenyl]-N′-[3,5-bis(trifluoromethyl)phenyl]urea] | – | –
